Laboratory results published in patent publication US7655620B2, “Use of one or more metal carriers to selectively kill mammalian cells” (Cancure Laboratories, LLC, priority 2005, dated 2010).
Entries after “also recorded” stand apart in the source; their conditions may differ.

Experiments:
[1] = system: cancer cells; assay: Killing of cancer cells by dithiocarbamates in the absence or presence of cadmium/zinc; type: cell-based; settings: for effectiveness in killing cancer cells in comparison to CCK3: 10-50 μM, absence or presence of 20 μM CdCl2/ZnCl2; for induction of cell death in the presence of cadmium or zinc: in vitro
Experimental: A large number of dithiocarbamates can be synthesized that, similar to 3-aminopropylpiperidine-1-carbodithioate (CCK3), contain a free amino group. Several of these compounds were synthesized and tested (in the range of 10-50 μM concentration) on cancer cells in the absence or presence of 20 μM CdCl2/ZnCl2 in comparison to CCK3, as follows. […] Similarly, 1-{[(3-aminopropyl)thio]carbonothiol}pyrrolidine-2-carboxilic acid.HCl salt (for structure see FIG. 1) was ineffective both in the absence and presence of cadmium/zinc. The last two compounds may be ineffective because the presence of carboxyl group may interfere with proper binding of cadmium and zinc to the molecule. 3-Aminopropylpyrrolidine-1-carbodithionate. […] From this list, it appears that not every free amino group-containing dithiocarbamate can effectively kill cells in the presence of cadmium and zinc. In some of these cases the metal atom may bind to the dithiocarbamate molecule too strongly (covalently), not allowing dissociation of the metal from the molecule once inside the cell. After comparison of the above compounds with the effects of CCK3, further experiments were principally carried out with PDC and CCK3. These are representative compounds that can be the most effectively and most economically used when either no further modification of the molecule is required (PDC) or when modification with a targeting moiety is required (CCK3).

[2] = system: MDA-MB-231 human mammary gland adenocarcinoma cells; assay: Cell death judged from cell morphology (photographs); type: cell-based; settings: 5 μM CCK3, 10 μM cadmium, alone or in combination; 60 min; 10% serum-containing medium
Experimental: (§1) MDA-MB-231 cells were cultured in Leibovitz's L-15 medium and 10% fetal bovine serum; the medium was changed 2 hours prior to treatments. For the treatments, cells were incubated in triplicate in 12-well plates. A typical experiment with these cells is illustrated in FIG. 3. The cells were untreated (FIG. 3A) or treated with 5 μM CCK3 (FIG. 3B), 10 μM cadmium (FIG. 3C), or 5 μM CCK3+10 μM cadmium (FIG. 3D) for 60 min in 10% serum-containing medium. […] In some experiments, cells were also incubated with [^3H]thymidine (1 μCi/ml) during the last 30 min of treatment to determine DNA synthesis. Cadmium and […] decreased DNA synthesis by 6 and 12%, while in combination they had 100% inhibitory effect.
(§2) The cells were cultured as described in Example 4. The cadmium/MT contained 5 cadmium atoms per one MT molecule while zinc/MT contained 5 zinc atoms per one MT molecule. […] Thus, in this cell line cadmium/MT+PDC killed cells more rapidly and efficiently compared to the same amount of zinc/MT+PDC.

[3] = system: T47D human mammary gland ductal carcinoma cells; assay: as above; type: cell-based; settings: 5 μM CCK3, 10 μM cadmium, alone or in combination; 4 hours; 10% serum-containing medium
[4] = system: T47D cells; assay: [3H]thymidine DNA synthesis; type: cell-based, human; settings: 5 μM CCK3, 10 μM cadmium, alone or in combination; 4 hours; [3H]thymidine during last 30 min
Experimental: (§3) Biochem. Biophys. Res. Commun. 213, 980-985]. […] Survival values obtained with untreated cells were considered 100%. […] Cancer Res. 47, 936-942].
T47D Cells were cultured in RPMI 1640 cell culture medium (see Gibco Catalogue) supplied with 2 mM L-glutamine, 10 mM Hepes, 1 mM sodium pyruvate, 4.5 g/L glucose, 1.5 g/L sodium bicarbonate, 0.2 I.U. bovine insulin/ml, and 10% fetal bovine serum. The medium was changed for fresh 10% serum-containing medium 2 hours prior to treatments. For the treatments, the cells were incubated in triplicate in 12-well plates. The cells were untreated (FIG. 2A) or treated with 5 μM CCK3 alone (FIG. 2B), 10 μM cadmium alone (FIG. 2C), or 5 μM CCK3 and 10 μM cadmium in combination (FIG. 2D) for 4 hours in 10% serum-containing medium when the photographs were taken. […] Finally, cells were incubated with [^3H]thymidine (1 μCi/ml) during the last 30 min of treatment to determine DNA synthesis. Cadmium and CCK3 decreased DNA synthesis by 13 and 8% respectively, while in combination they had practically 100% inhibitory effect.

[5] = system: MDA-MB-231 cells; assay: [3H]thymidine DNA synthesis; type: cell-based, human; settings: 60 min treatment, 10 μM cadmium, alone or in combination; [3H]thymidine during last 30 min
Experimental: as §3, §1, §2

[6] = system: MCF-7 cells; assay: Cell death judged from cell morphology (photographs); type: cell-based, human; settings: 20 μM CCK3, 120 μg/ml cadmium/MT, alone or combined; 8 hours; 10% serum
Experimental: (§4) The cells were cultured as described in Example 4.

[7] = system: MCF-7 cells; assay: Trypan blue exclusion assay; type: cell-based, human; settings: 20 μM CCK3, 120 μg/ml cadmium/MT, alone or combined; 8 hours
Experimental: as §3, §4

[8] = system: ZR-75-1 human breast cancer cells; assay: Cell death judged from cell morphology (photographs); type: cell-based
Experimental: ZR-75-1 cells were cultured in triplicate in 12-well plates in the medium described in Example 4. The cadmium/MT contained 5 atoms of cadmium and 1 atom of zinc, while the zinc/MT contained 5 atoms of zinc and 1 atom of cadmium per one MT molecule. ZR-75-1 cells were incubated in 10% serum-containing medium for 24 h in the absence (FIG. […] 6D), 240 μg/ml of zinc/MT (FIG. […] 6F).
(§5) Cells were cultured in triplicate in 12-well plates as described in Example 4. The ratio of cadmium and zinc in cadmium/MT was 5:1 per one MT molecule. ZR-75-1 cells were incubated in 10% serum-containing medium for 8 hours in the absence (FIG. 7A) or presence of 20 μM CCK3 (FIG. 7B), 120 μg/ml of cadmium/MT (FIG. 7C), or 120 μg/ml of cadmium/MT+20 μM CCK3 (FIG. 7D).

[9] = system: various cancer and human normal 966 SK skin fibroblasts; assay: MTT assay, statements over all cell lines of Example 6; type: cell-based; settings: CCK3 10 μM, cadmium/MT 60 μg/ml, alone or combined, 24 hour
Experimental: as §3
MCF-7 estrogen receptor positive human breast carcinoma cells and CaOV-3 human ovarian adenocarcinoma cells were grown in Dulbecco's modified Eagle's medium containing 4 mM L-glutamine, 1.5 g/L sodium bicarbonate, 4.5 g/L glucose, 1 mM sodium pyruvate and 10% fetal bovine serum. T47D human mammary gland ductal carcinoma cells and ZR-75-1 estrogen receptor positive human mammary gland ductal carcinoma cells were cultured in RPMI 1640 medium as indicated above. MB-468 and MB-231 human mammary gland adenocarcinoma cells were maintained in Leibovitz's L-15 medium as described above. AN3CA human endometrial adenocarcinoma and 966 SK normal human skin fibroblasts were cultured in Eagles's minimum essential medium supplemented with 0.1 mM non-essential amino acids and 10% fetal bovine serum. The preparation of MT (from Sigma-Aldrich, Inc.) used in this experiment contained about 4 ions of cadmium and only about 0.3 ions of zinc per MT molecule. […] The MTT assay was used for the determination of relative cell numbers. Data are illustrated in FIG. 4 as rates of growth inhibition (maximum inhibition=100%) in comparison to values without treatment. The error bars indicate S.D. (n=8). […]

[10] = system: cancer cells (CaOV-3, T47D and PC-3); assay: MTT assay / killing, statements over several cancer cell lines (metal/MTLP-25); type: cell-based, human; settings: 20 μM CCK3, 100 μg/ml metal/MTLP-25, 24 hours; summary of Table 1
Experimental: The concentration range for these cadmium/MTLP-25 effects in some embodiments is 10-600 μg/ml, while in other embodiments, the concentration range is 50-200 μg/ml. Therapeutically effective concentrations of metal/MTLP-25 and CCK3 or PDC exert maximal effects on tumors without causing significant toxicity.
PC-3 human prostate adenocarcinoma cells were maintained and treated in Ham's F12K medium containing 7% fetal bovine serum. The CaOV-3 human ovarian adenocarcinoma cells were maintained and treated in Dulbecco's modified Eagle's medium containing 4 mM L-glutamine, 1.5 g/L sodium bicarbonate, 4.5 g/L glucose, 1 mM sodium pyruvate and 10% fetal bovine serum. T47D were maintained and treated in RPMI 1640 cell culture medium (see Gibco Catalogue) supplied with 2 mM L-glutamine, 10 mM Hepes, 1 mM sodium pyruvate, 4.5 g/L glucose, 1.5 g/L sodium bicarbonate, 0.2 I.U. bovine insulin/ml, and 10% fetal bovine serum. The cells were incubated in 96-well plates in the medium described above for 24 hours in the absence or presence of 20 μM CCK3 and/or 100 μg/ml of cadmium/MTLP-25 or 100 μg/ml of zinc/MTLP-25 as indicated in Table 1. After the treatment period, the MTT assay was used to determine the relative cell number of viable cells. Errors are expressed as S.D. (n=8 for each treatment).

[11] = system: ZR-75-1 cells
Experimental: Biochem. Biophys. Res. Commun. […] Survival values obtained with untreated cells were considered 100%.
ZR-75-1 cells were cultured in triplicate in 12-well plates in the medium described in Example 4. The cadmium/MT contained 5 atoms of cadmium and 1 atom of zinc, while the zinc/MT contained 5 atoms of zinc and 1 atom of cadmium per one MT molecule. ZR-75-1 cells were incubated in 10% serum-containing medium for 24 h in the absence (FIG. 6A) or presence of 15 μM CCK3 (FIG. 6B), 60 μg/ml of cadmium/MT (FIG. 6C), 60 μg/ml of cadmium/MT+15 μM CCK3 (FIG. 6D), 240 μg/ml of zinc/MT (FIG. 6E), or 240 μg/ml of zinc/MT+15 μM CCK3 (FIG. 6F).
as §5

Cl.NCCCSC(=S)N1CCCC1 [3-Aminopropylpyrrolidine-1-carbodithionate. HCl salt]
effectiveness in killing cancer cells in comparison to CCK3 [1]: significantly less effective than CCK3

CCN(CC)C(=S)S [diethyldithocarbamate, reference compound]
induction of cell death in the presence of cadmium or zinc [1]: as effective as CCK3

NCCCSC(=S)N1CCCCC1C(=O)O (stereo not shown) [1-{[(3-aminopropyl)thio]carbonothioyl}piperidine-2-carboxilic acid]
effectiveness in killing cancer cells in comparison to CCK3 [1]: not effective at all

cadmium
cell death indicated by cell morphology (cell rounding) [2]: no effects on cell morphology | cell death indicated by cell morphology (cell rounding) [3]: no effects on cell morphology | decrease of DNA synthesis [4]: 13% | decrease of DNA synthesis [5]: 6%

C[N+](C)(C)CCOC(=S)SCCCN.[Cl-] [2({[(3-aminopropyl)thio]carbonothionyl}oxy)-N,N,N-trimethylethanolamine-chloride]
effectiveness in killing cancer cells in comparison to CCK3 [1]: less effective than CCK3

S=C(S)N1CCCC1 [PDC, pyrrolidinecarbodithioic acid, reference compound]
decrease of DNA synthesis [5]: 12%

Cl.NCCCSC(=S)N1CCCCC1 [CCK3, 3-aminopropylpiperidine-1-carbodithioate.HCl salt]
cell death indicated by cell morphology [6]: failed to significantly alter cell morphology | cells killed (trypan blue exclusion assay) [7]: practically no effects on viability | cell death indicated by cell morphology (cell rounding) [2]: no effects on cell morphology | induction of cell death in the presence of cadmium or zinc [1]: retains its ability to carry metals inside the cells resulting in cell death; also recorded: killed the cells | cell death indicated by cell morphology ([8]; 20 μM CCK3, 120 μg/ml cadmium/MT, alone or combined, 8 hours, 10% serum): failed to significantly alter cell morphology | cell death indicated by cell morphology (FIG. 6 legend) ([8]; CCK3 10 μM, cadmium/MT 60 μg/ml, zinc/MT 240 μg/ml, alone or MT+CCK3, 24 hours): failed to significantly alter cell morphology | cell death indicated by cell morphology (cell rounding) [3]: no effects on cell morphology | decrease of DNA synthesis [4]: 8% | cell viability (FIG. 4) [9]: significantly smaller than the combined effects | reduction of the viability of cancer cells [10]: no effects | cells killed (trypan blue exclusion assay) ([11]; 15 μM CCK3, 60 μg/ml cadmium/MT, 240 μg/ml zinc/MT, alone or MT+CCK3, 24 h): practically no effects | cells with decreased viability / killed (trypan blue exclusion assay) ([11]; 20 μM CCK3, 120 μg/ml cadmium/MT, alone or combined, 8 hours): 16%

Cl.NCCCSC(=S)N1CCCC1C(=O)O (stereo not shown) [1-{[(3-aminopropyl)thio]carbonothiol}pyrrolidine-2-carboxilic acid.HCl salt]
effectiveness in killing cancer cells in comparison to CCK3 [1]: ineffective
